In US11486825B1, “Devices and methods for analysis of biological matter using plasmon resonance” (THE FLORIDA INTERNATIONAL UNIVERSITY BOARD OF TRUSTEES, priority 2022, dated 2022):

Test system: contracting CMs (cardiomyocytes)
Experiment: P-CeG (plasmonic cardio-eukaryography) signal of contracting cardiomyocytes cultured on gold SPR sensor, consecutive drug injections
Assay type: cell-based
From the text: The device as shown in FIGS. 1(a) and 1(c) was used for experiments and studies. The device had dimensions of 12 cm×7.5 cm×5 cm and had micro LEDs, LED splitters, micro prisms, micro polarizers, and micro detectors that induced plasmonic waveguides and detected changes in the electrical/mechanical activity of a cell membrane. Cellular function of mechanical and electrical origins was filtered and sorted using software in operable communication with the sensing platform, and was then compared to the physiological parameters of a healthy cell. […] The hinged cap (fluidic module) had heavy-duty gaskets made from PDMS attached thereto. Micropumps and microtubing on the were used to drive the flow of the cell medium from its attached reservoir. The base of the device acted as a Faraday cage for the micro settings of plasmonic induction and detection, as well as related PCB boards and computer interface connectors of the sensing platform. The refraction index of the prisms was […] (each prism was a BK7 prism from a BI2000 device (Biosensing Instruments, AZ). The cell-SPR model discussed herein with reference to FIGS. 2(a)-2(f) was used as the cell-SPR model for experiments.
Empirical P-CeG data was correlated to the mathematical model of charge distribution near CM's cell membrane. FIG. 10(a) illustrates the four phases in a CM's action potential, field potential, and force of contraction profile (top to bottom, respectively) over time. The dashed vertical lines show phases 0, 1, 2, and 3 of the CM's electromechanical activities. […] Values were extracted using equations from the cell-SPR model. […] Arrows from left to right in the bottom graph depict the depolarization amplitude (DA), field potential duration (FPD), and the repolarization amplitude (RA) as the main features of a CM's field potential. These are also elaborated on in FIG. 10(e) and FIG. 10(f).
Feature extraction was performed on a P-CeG signal and its correlated charge profile of contracting CMs. FIGS. 11(a), 11(b), and 11(c) show amplitude, full width at half maximum (FWHM), and inter-beat intervals (IBI), respectively, for a 100-second epoch from the P-CeG signal obtained from 12 CM-cultured gold sensors. The high variability of values across different sensors is due to the selected methodology for cell isolation and non-ideal experimental conditions (room temperature and without CO2). FIGS. 11(d), 11(e), and 11(f) show DA, RA, and FPD of contracting CMs obtained from their charge profile.
Analysis was performed using blebbistatin as the cells to be analyzed. Consecutive injections of 1 micromolar (04), 3 μM, 5 μM, 7 and 9 μM blebbistatin were performed, and the P-CeG signals were recorded and analyzed. […] A decrease of the control sample's amplitude and high variability in the FWHM of data with time indicate decreased cellular functionality due to non-ideal experimental conditions. Average data are reported as mean±std: 1-way ANOVA, p<0.0001, 95% CI.
Analysis was performed using verapamil as the cells to be analyzed. Consecutive injections of 50 nanomolar (nM), 100 nM, 200 nM, and 500 nM verapamil were performed, and the P-CeG signals were recorded and analyzed. […] Average data are reported as mean±std: 1-way ANOVA, p<0.0001, 95% CI. […] Referring to FIGS. 14(k) and 14(l), an increase in FPD and FWHM of the signals is distinctly observable with increasing verapamil concentrations.
Analysis was performed using caffeine as the cells to be analyzed. Consecutive injections of 2 millimolar (mM), 4 mM, 6 mM, and 8 mM caffeine were performed, and the P-CeG signals were recorded and analyzed. […] Average data are reported as mean±std: 1-way ANOVA, p<0.0001, 95% CI.

For Cc1ccc2c(c1)C(=O)C1(O)CCN(c3ccccc3)C1=N2 (stereo not drawn) [blebbistatin], the “P-CeG signal amplitude (refractive index change)” value (consecutive injections of 1, 3, 5, 7 and 9 μM blebbistatin vs control, FIGS. 13(a), 13(b), 13(d)) was “continuous decrease in signal amplitude”, the “signal's peak amplitudes (normalized refractive angle change)” value (five concentrations of blebbistatin 1-9 μM, FIG. 13(i)) was “decreased” and the FWHM duration (five concentrations of blebbistatin 1-9 μM, FIG. 13(j)) was “higher variability”. For the same compound, the “cell signaling rate (action potential per minute, APM)” value (five concentrations of blebbistatin 1-9 μM, FIG. 13(k)) was “relatively unchanged”, the “depolarization amplitude (DA)” value (increasing blebbistatin concentrations 1-9 μM, FIG. 13(f)) was “no significant difference” and the “repolarization amplitude (RA)” value (increasing blebbistatin concentrations 1-9 μM, FIG. 13(g)) was “no significant difference”. For the same compound, the “field potential duration (FPD)” value (increasing blebbistatin concentrations 1-9 μM, FIG. 13(h)) was “showed a decrease”.

For Cn1c(=O)c2c(ncn2C)n(C)c1=O [caffeine], the “P-CeG signal amplitude (refractive index change)” value (consecutive injections of 2, 4, 6 and 8 mM caffeine vs control, FIGS. 15(a), 15(b), 15(d)) was “presence of detectable signal amplitude”, the “peak amplitudes (normalized refractive angle change)” value (increased caffeine concentrations 2-8 mM, FIG. 15(i)) was “relatively unchanged” and the FWHM duration (increased caffeine concentrations 2-8 mM, FIG. 15(j)) was “relatively unchanged”. The “cell signaling rate (action potential per minute, APM)” value (increased caffeine concentrations 2-8 mM, FIG. 15(k)) was “decreases”, the “depolarization amplitude (DA)” value (increasing caffeine concentrations 2-8 mM, FIG. 15(f)) was “no significant difference” and the “repolarization amplitude (RA)” value (increasing caffeine concentrations 2-8 mM, FIG. 15(g)) was “no significant difference”. The “field potential duration (FPD)” value (increasing caffeine concentrations 2-8 mM, FIG. 15(h)) was “slight increase”.

With COc1ccc(CCN(C)CCCC(C#N)(c2ccc(OC)c(OC)c2)C(C)C)cc1OC (stereo not drawn) [verapamil] the “P-CeG signal amplitude (refractive index change)” value (consecutive injections of 50, 100, 200 and 500 nM verapamil vs control, FIGS. 14(a), 14(b), 14(d)) was “sharp decrease in signal amplitude”, the “peak amplitudes (normalized refractive angle change)” value (increasing verapamil concentration 50-500 nM, FIG. 14(h)) was “decreased” and the FWHM duration (increasing verapamil concentration 50-500 nM, FIG. 14(i)) was “slightly increases before it becomes undetectable and is counted as zero”. The “cell signaling rate (action potential per minute, APM)” value (increasing verapamil concentration 50-500 nM, FIG. 14(j)) was “decreased”, the “depolarization amplitude (DA)” value (increasing verapamil concentrations 50-500 nM, FIG. 14(e)) was “no significant difference” and the “repolarization amplitude (RA)” value (increasing verapamil concentrations 50-500 nM, FIG. 14(f)) was “no significant difference”. For the same compound, the “field potential duration (FPD)” value (increasing verapamil concentrations 50-500 nM, FIG. 14(g)) was “showed an increase”.
